Assays:
azeB expression = test: azeB-luxCDABE reporter (dual pyocyanin/azeB-lux assay); settings: 50 and 100 μM, azeB-lux reporter strains
PqsE(WT) = molecular target: T1, PqsE(WT) (Pseudomonas aeruginosa, UniProt P20581); test: biochemical
T1 construct: 6xHis (N); made in house; host or cells: E. coli BL21 (DE3), pET28b-6xHis-pqsE(WT) (strain SM776)

intracellular PqsE = molecular target: T2, intracellular PqsE (Pseudomonas aeruginosa, UniProt P20581); type: cell-based; settings: 8 h growth
T2 construct: endogenous in cells; host or cells: P. aeruginosa UCBPP-PA14 wild type

PqsE(S285W) = molecular target: T3, PqsE(S285W) (Pseudomonas aeruginosa, UniProt P20581, S285W); test: biochemical
T3 construct: 6xHis (N); made in house; host or cells: E. coli BL21 (DE3), pET28b-6xHis-pqsE(S285W) (strain IT55)

Compound | Effect on azeB expression (luminescence/OD600) (azeB expression) | IC50 (PqsE(WT)) [µM] | Decrease in acetophenone (intracellular PqsE; 10 μM, wildtype P. aeruginosa) [%] | Effect on acetophenone levels at 100 μM (intracellular PqsE; 100 μM, compared to pqsE(D73A) strain) | IC50 (PqsE(S285W)) [µM] | Effect on acetophenone levels (intracellular PqsE; 10 and 100 μM)
O=c1n(CCCN2CCN(c3cccc(Cl)c3)CC2)nc2ccccn12 [Trazodone] | not accompanied by increases in azeB expression | – | – | – | – | –
O=C(CCCCCCC(=O)Nc1ccccc1)NO [Vorinostat] | not accompanied by increases in azeB expression | 1.2 | 30 | full inhibition of PqsE catalytic activity | – | –
CN1CCc2cccc3c2[C@H]1Cc1ccc(O)c(O)c1-3 [Apomorphine] | not accompanied by increases in azeB expression | 18 | – | – | 22 | no significant effect on acetophenone levels
